Assay results published in patent US20260176319A1, “PEPTIDE ANALOGS AND METHODS OF USING THE SAME” (Kallyope, Inc., priority 2024, published 2026).
≈ marks a conversion by molar mass, not a printed value. Where two headings read alike, the source gives them in different places. Starred links: 1 amine or outer side, 2 acyl side, 3 side chain; linkers in the order of their positions; H or OH if unused. Non-standard residues stand in square brackets, D forms with d. Residues, ends and D or L forms follow the SMILES beside them. *: point of attachment. Trp(7-Me) = Cc1cccc2c(C[C@H](N)C(=O)O)c[nH]c12; C20 diacid = O=C(O)CCCCCCCCCCCCCCCCCCC(=O)*; γGlu = O=C(O)[C@H](CCC(=O)[*:2])N[*:1]; NMeH = CN[C@@H](Cc1c[nH]cn1)C(=O)O; Nle = CCCC[C@H](N)C(=O)O; β3hA = C[C@H](N)CC(=O)O; AEEA = NCCOCCOCC(=O)O; βAla = NCCC(=O)O

Assays:
[1] = Pharmacokinetics after intravenous peptide administration in mice; design: species or system C57BL/6 mice; settings: in vivo
Method: GPR-10 and peptides were dosed IV at 2 mg/kg as a formulation of 0.4 mg/mL in […]+65% water (pH 6-7).

human GRP receptors = molecular target: T1, human GRP receptors (Homo sapiens, UniProt P30550); assay: IP1 GRPR activity: HTRF IP1-Gq assay in U2OS cells stably expressing human GRP receptors; assay type: cell-based; settings: 90 minutes incubation, read-out: hIP1 GRPR EC50
T1 construct: host or cells: U2OS
T1 sequence (P30550 whole entry): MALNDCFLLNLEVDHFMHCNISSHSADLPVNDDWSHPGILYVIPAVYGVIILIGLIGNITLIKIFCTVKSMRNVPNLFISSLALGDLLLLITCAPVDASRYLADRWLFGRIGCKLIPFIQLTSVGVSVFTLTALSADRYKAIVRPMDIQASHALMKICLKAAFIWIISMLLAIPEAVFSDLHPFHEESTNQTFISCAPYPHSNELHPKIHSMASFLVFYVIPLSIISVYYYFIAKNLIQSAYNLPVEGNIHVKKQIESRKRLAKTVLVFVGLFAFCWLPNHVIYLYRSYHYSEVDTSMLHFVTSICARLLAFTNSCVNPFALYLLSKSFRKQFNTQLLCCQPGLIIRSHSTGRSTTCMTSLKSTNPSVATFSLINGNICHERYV
Method: U2OS cells stably expressing human GRP receptors (DiscoverX, #93-0229C3) were cultured according to manufacturer's instructions. Cells were cultured to […], then collected using AccuTase (Innovative Cell Technologies, #AT104). Cells were washed and plated on a poly-D-lysine-coated 384-well plate (ThermoFisher, #A3890401) at a density of 2,500 cells/well in […] assay buffer (AssayComplete Cell Plating 5 Reagent, DiscoverX #93-0563R5), then incubated overnight at 37° C. and 5% C02. The following morning, a homogenous time-resolved fluorescence (HTRF) assay was performed in a 384-well plate format using the IP1-Gq assay kit (Cisbio, 62IPAPEB). Test compounds were made as a stock in DMSO, then serially diluted to generate 10-point dose response curves in IP1 stimulation buffer. Five microliters of the prepared compounds were then added to the plate containing cells and assay buffer in duplicate, and the cells were incubated at 37° C. and 5% CO2 for 90 minutes. Following compound incubation, […] of IP1 lysis/detection buffer (prepared according to manufacturer's instructions) was added to each well, and the plates were incubated at room temperature for 1 hour. HTRF signals were measured using a plate reader (ClarioSTAR), calculating the ratio between emissions at 665 nm and 620 nm (HTRF ratio). HTRF ratio for positive (Max, […]; SEQ ID NO. 45) and negative (Min, DMSO) controls were used to normalize HTRF data and generate values for % activity. EC50 and Max activity values were determined using a standard 4-parameter fit using GraphPad Prism.

physchem = assay type: physicochemical; settings: pH 8
Method: Solubility was measured in an appropriate buffer as follows. A known amount of compound, e.g., 20 mg, was placed in a vessel equipped with a stirring bar. A measured amount of buffer (e.g., 200-400 μL of 200 mM phosphate buffer) was added, and in some cases, additional surfactants, e.g., polysorbate 80 (PS80), polyethylene glycol (15)-hydroxystearate (Solutol® HS15), etc., were added. A measured amount of purified water (e.g., 1.6 mL) was added, and the pH was adjusted to the desired pH, e.g., pH 8, by addition of 0.5 N aqueous NaOH or 0.5 N aqueous HCl. The volume of added acid or base was recorded. The mixture was stirred at 300 rpm for 10 min. Additional purified water was added to reach a given volume, e.g., 4 mL, of solution. After stirring the sample at 300 rpm at room temperature for 1 h or 24 h, the appearance was observed and the pH measured.

[2] = Food intake and body weight after subcutaneous administration in mice, 16 hours (Example A-2b); assay type: in vivo; settings: male C57BL/6J mice, single subcutaneous dose, peptide 500 nmol/kg, high fat diet
Description: Male C57BL/6J mice, approximately 10 weeks old (Jackson Laboratory), were group housed in a 12-h light cycle room (6:00 AM on, 6:00 PM off) upon arrival and acclimated to the facility for a minimum of 1 week prior to the study. Animals were provided standard rodent chow (PicoLab Rodent Diet, 5053) ad libitum. Animals were single caged for a minimum of 3 days prior to the study. During the period prior to the study day, mice were exposed to one pellet of high fat diet (Research Diets D12492i) to avoid any effects of novelty in the study. On three separate days during this run-in period, mice were given one dose of phosphate-buffered saline (PBS; 5 mL/kg) by subcutaneous injection to acclimate them to the procedure. For baseline measures, pre-weighed meals of standard rodent chow were provided to each animal following acclimation dosing at 3:30 PM, and body weight was recorded. The next morning at 9:30 AM, food intake and body weight measurements were recorded at 16 hours following the presentation of the pre-weighed meal. These measurements and the resulting body weight changes were then used to assign mice to balanced cohorts. On the day of the study, mice were weighed and given a subcutaneous dose of either vehicle (PBS, 5 mL/kg; pH 5.0-8.5) or a peptide of the disclosure (500 nmol/kg; pH 5.0-8.5). Following dosing, a pre-weighed high fat diet was provided. Food intake and body weight measurements were taken at 16 hours following the provision of the pre-weighed high fat diet. […] Table 6 below describes the percent reduction in food intake and the percent body weight (BW) change with peptides as measured relative to the vehicle group.

[3] = mouse, C57BL/6 mice, IV 2 mg/kg, formulation of 0.4 mg/mL, read-out: CL
[4] = mouse, C57BL/6 mice, IV 2 mg/kg, formulation of 0.4 mg/mL, read-out: T1/2 (converted)

| clearance ([1]; C57BL/6, mouse, iv, 2 mg/kg) [mL/min/kg] | half-life ([1]; C57BL/6, mouse, iv, 2 mg/kg) [h] | EC50 (human GRP receptors) [nM] | solubility at 24 h (physchem) [µg/mL] | clearance [1, 3] [mL/min/kg] | half-life [1, 4] [h] | Structure (SMILES) | % Body Weight Change at 16 hours (compared with vehicle) [2] [%] | % Reduction in Cumulative Food Intake over 16 hours (compared with vehicle) [2] [%] |
| --- | --- | --- | --- | --- | --- | --- | --- | --- |
| 0.18 | 7.5 | 1.8 | 4200 (≈ 2070 µM) |  |  | CCCC[C@H](NC(=O)[C@H](CC(C)C)NC(=O)[C@H](Cc1c[nH]cn1)NC(=O)C[C@H](C)NC(=O)[C@@H](NC(=O)[C@H](C)NC(=O)[C@H](Cc1c[nH]c2c(C)cccc12)NC(=O)[C@H](Cc1c[nH]cn1)NC(=O)[C@H](CCC(=O)O)NC(=O)CNC(=O)COCCOCCNC(=O)COCCOCCNC(=O)CC[C@H](NC(=O)CC[C@H](NC(=O)CCCCCCCCCCCCCCCCCCC(=O)O)C(=O)O)C(=O)O)C(C)C)C(N)=O [Peptide 247, Eicosanedioyl-γGlu-γGlu-OEG-OEG-Gly-Glu-His-7MeTrp-Ala-Val-BABA-His-Leu-Nle-NH2] ({C20 diacid-γGlu-γGlu-AEEA-AEEA}-GEH[Trp(7-Me)]AV[β3hA]HL[Nle]-NH2) | −11 | 65 |
|  |  |  |  | 0.23 | 7 | CCCC[C@H](NC(=O)[C@H](CC(C)C)NC(=O)[C@H](Cc1c[nH]cn1)NC(=O)CCNC(=O)[C@@H](NC(=O)[C@H](C)NC(=O)[C@H](Cc1c[nH]c2ccccc12)NC(=O)[C@H](Cc1c[nH]cn1)NC(=O)[C@H](CCC(N)=O)NC(=O)CNC(=O)COCCOCCNC(=O)COCCOCCNC(=O)CC[C@H](NC(=O)CCCCCCCCCCCCCCCCCCC(=O)O)C(=O)O)C(C)C)C(N)=O [Peptide 241, Eicosanedioyl-γGlu-OEG-OEG-Gly-Gln-His-Trp-Ala-Val-β-Ala-His-Leu-Nle-NH2] ({C20 diacid-γGlu-AEEA-AEEA}-GQHWAV[βAla]HL[Nle]-NH2) | −10 | 74 |
|  |  |  |  | 0.12 | 9.7 | CCCC[C@H](NC(=O)[C@H](CC(C)C)NC(=O)[C@H](Cc1c[nH]cn1)NC(=O)CCNC(=O)[C@@H](NC(=O)[C@H](C)NC(=O)[C@H](Cc1c[nH]c2c(C)cccc12)NC(=O)[C@H](Cc1c[nH]cn1)NC(=O)[C@H](CCC(=O)O)NC(=O)[C@@H](CO)NC(=O)[C@H](CCC(=O)O)NC(=O)COCCOCCNC(=O)COCCOCCNC(=O)CC[C@H](NC(=O)CC[C@H](NC(=O)CCCCCCCCCCCCCCCCCCC(=O)O)C(=O)O)C(=O)O)C(C)C)C(N)=O [Peptide 248, Eicosanedioyl-γGlu-γGlu-OEG-OEG-Glu-D-Ser-Glu-His-7MeTrp-Ala-Val-β-Ala-His-Leu-Nle-NH2] ({C20 diacid-γGlu-γGlu-AEEA-AEEA}-E[dS]EH[Trp(7-Me)]AV[βAla]HL[Nle]-NH2) | −9 | 54 |
|  |  | 10.8 |  |  |  | CCCC[C@H](NC(=O)[C@H](CC(C)C)NC(=O)[C@H](Cc1c[nH]cn1)N(C)C(=O)C[C@H](C)NC(=O)[C@@H](NC(=O)[C@H](C)NC(=O)[C@H](Cc1c[nH]c2c(C)cccc12)NC(=O)[C@H](Cc1c[nH]cn1)NC(=O)[C@H](CC(=O)O)NC(=O)CNC(=O)COCCOCCNC(=O)COCCOCCNC(=O)CC[C@H](NC(=O)CC[C@H](NC(=O)CCCCCCCCCCCCCCCCCCC(=O)O)C(=O)O)C(=O)O)C(C)C)C(N)=O [Peptide 278, Eicosanedioyl-γGlu-γGlu-OEG-OEG-Gly-Asp-His-7MeTrp-Ala-Val-BABA-NMeHis-Leu-Nle-NH2] ({C20 diacid-γGlu-γGlu-AEEA-AEEA}-GDH[Trp(7-Me)]AV[β3hA][NMeH]L[Nle]-NH2) | −12 | 63 |

Continued, compound first:

| Structure (SMILES) | clearance ([1]; C57BL/6, mouse, iv, 2 mg/kg) [mL/min/kg] | half-life ([1]; C57BL/6, mouse, iv, 2 mg/kg) [h] | EC50 (human GRP receptors) [nM] | solubility at 24 h (physchem) [µg/mL] | clearance [1, 3] [mL/min/kg] | half-life [1, 4] [h] | % Body Weight Change at 16 hours (compared with vehicle) [2] [%] | % Reduction in Cumulative Food Intake over 16 hours (compared with vehicle) [2] [%] |
| --- | --- | --- | --- | --- | --- | --- | --- | --- |
| CCCC[C@H](NC(=O)[C@H](CC(C)C)NC(=O)[C@H](Cc1c[nH]cn1)NC(=O)CCNC(=O)[C@@H](NC(=O)[C@H](C)NC(=O)[C@H](Cc1c[nH]c2c(C)cccc12)NC(=O)[C@H](Cc1c[nH]cn1)NC(=O)[C@H](CCCNC(=N)N)NC(=O)CNC(=O)COCCOCCNC(=O)COCCOCCNC(=O)CC[C@H](NC(=O)CCCCCCCCCCCCCCCCCCC(=O)O)C(=O)O)C(C)C)C(N)=O [Peptide 242, Eicosanedioyl-γGlu-OEG-OEG-Gly-Arg-His-7MethylTrp-Ala-Val-β-Ala-His-Leu-Nle-NH2] ({C20 diacid-γGlu-AEEA-AEEA}-GRH[Trp(7-Me)]AV[βAla]HL[Nle]-NH2) |  |  |  |  |  |  | −9 | 55 |
| CCCC[C@H](NC(=O)[C@H](CC(C)C)NC(=O)[C@H](Cc1c[nH]cn1)N(C)C(=O)C[C@H](C)NC(=O)[C@@H](NC(=O)[C@H](C)NC(=O)[C@H](Cc1c[nH]c2c(C)cccc12)NC(=O)[C@H](Cc1c[nH]cn1)NC(=O)[C@H](CCC(=O)O)NC(=O)[C@H](CO)NC(=O)COCCOCCNC(=O)COCCOCCNC(=O)CC[C@H](NC(=O)CC[C@H](NC(=O)CCCCCCCCCCCCCCCCCCC(=O)O)C(=O)O)C(=O)O)C(C)C)C(N)=O [Peptide 277, Eicosanedioyl-γGlu-γGlu-OEG-OEG-Ser-Glu-His-7MeTrp-Ala-Val-BABA-NMeHis-Leu-Nle-NH2] ({C20 diacid-γGlu-γGlu-AEEA-AEEA}-SEH[Trp(7-Me)]AV[β3hA][NMeH]L[Nle]-NH2) |  |  |  |  |  |  | −12 | 69 |
